The text below walks through data of patent publication US11166972B2, “Compositions comprising nicotinamide riboside and a urolithin” (Amazentis SA, priority 2015, dated 2021).

In this test the test system is mitochondrial respiratory subunits proteins in C2C12 myoblasts. The experiment in a line: Western blot of mitochondrial respiratory subunits proteins in C2C12 myoblasts (Example 6). Format: cell-based. The settings on record: 48 hours. On the procedure:
C2C12 myoblasts were cultured in Dulbecco's modified Eagle's medium (DMEM) including 4.5 g/L glucose, 10% fetal calf serum, and 50 μg/mL gentamicin. Urolithin A (UA) was dissolved in DMSO in a stock solution of 50 mM. Nicotinamide riboside (NR) in the form of the triflate salt was dissolved in double-distilled water in a stock solution of 1 M. One hundred thousand cells were plated at time 0 hours in 6-wells plates. A total of 3 wells was used per condition (n=3 per group). Cells were treated in a volume of 2 ml for a period of 48 hours at final concentrations of (a) DMSO 0.1%, (b) 25 μM UA, (c) 0.1 mM NR, (d) 1 mM NR, (e) 25 μM UA+0.1 mM NR and (f) 25 μM UA+1 mM NR. At the end of the treatment, cells were lysed with cell lysis buffer (#9803, Cell signalling) containing protease (cOmplete™, Roche) and phosphatase inhibitor (PhosSTOP™, Roche) and applied to Invitrogen NuPage® Novex® Gel System (Bis-Tris Protein Gels −4-12%, Thermo fisher Scientific). Protein levels were examined for mitochondrial respiratory subunits, including mitochondrially encoded cytochrome c oxidase I (MTCO1), succinate dehydrogenase complex flavoprotein subunit A (SDHA) and B (SDHB), ubiquinol-cytochrome c reductase core protein II (UQCRC2) and ATP synthase, H+ transporting, mitochondrial F1 complex, alpha subunit 1 (ATP5A). The housekeeping protein tubulin-α was measured as a loading control. Detection of the proteins was performed using an Azure c300 (Azure biosystem) (FIG. 1B). Western Blot images were representative of the three biological replicates. Experiments were repeated at least 2 times. Bands were quantified using ImageJ software. The heatmap of the band intensities was drawn using GEN-E (Broad Institute) conditional formatting. Control DMSO values were set to one (FIG. 1A).
For orientation: In western blotting, separated proteins are transferred to a membrane and probed.

With `O=c1oc2cc(O)ccc2c2ccc(O)cc12` [UA, Urolithin A], under “UA 25 μM alone”, the “ATP5A protein level, change vs DMSO control” value is recorded as “no change”. For the setting “UA 25 μM alone, increase”, the “MT-CO1 protein level, change vs DMSO control” value (from here on “MT-CO1 protein level, change”) is “+14%”; the “SDHA protein level, change vs DMSO control” value is “+54%”; the “SDHB protein level, change vs DMSO control” value was “+10%”; the “UQCRC2 protein level, change vs DMSO control” value is “+26%”.

With Nicotinamide riboside [NR], the “ATP5A protein level, change vs DMSO control” value (NR 0.1 mM) is “no effect”. Moreover, the “SDHB protein level, change vs DMSO control” value is listed as “no change” (NR 0.1 mM) and “no change” (NR 1 mM). Also, the “MT-CO1 protein level, change” value (NR 0.1 mM, decrease (printed −≈10%)) is given as “≈ 10%” and the “MT-CO1 protein level, change” value (NR 1 mM, decrease (printed −≈10%)) is given as “≈ 10%”. Besides, the “SDHA protein level, change vs DMSO control” value is, setting by setting: (NR 0.1 mM, increase) “≈ 100%”; (NR 1 mM, increase) “≈ 100%”. Besides, the “UQCRC2 protein level, change vs DMSO control” value runs as follows: (NR 0.1 mM, increase (+≈)) “≈ 10%”; (NR 1 mM, increase (+≈)) “≈ 10%”. In addition, the “ATP5A protein level, decrease vs DMSO control” value (NR 1 mM, decrease) came to 20%.
